Measured values as given in PubChem BioAssay (NCI).
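Briefly, cells in 96-well plates were exposed to five compound concentrations for 48 h, and endpoints were estimated by linear interpolation. Definition used: TGI = concentration required for complete inhibition of growth.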

Columns and labels:
Experiment in all cases: DTP human tumour cell line panel, 48 h
[1] = system: K-562 leukemia
[2] = system: TK-10 renal
[3] = system: HOP-62 NSCLC
[4] = system: SK-OV-3 ovarian
[5] = system: MCF7 breast
[6] = system: MDA-N
[7] = system: SK-MEL-5 melanoma
[8] = system: HCT-116 colon
[9] = system: SF-539 CNS
[10] = system: SK-MEL-2 melanoma
[11] = system: DU-145 prostate
[12] = system: MDA-MB-435
[13] = system: IGROV1 ovarian
[14] = system: SF-268 CNS
[15] = system: COLO 205 colon
[16] = system: U251 CNS
[17] = system: MALME-3M melanoma
[18] = system: CCRF-CEM leukemia
[19] = system: SK-MEL-28 melanoma
[20] = system: EKVX NSCLC
[21] = system: ACHN renal
[22] = system: SNB-19 CNS
[23] = system: BT-549 breast
[24] = system: 786-0 renal
[25] = system: A498 renal
[26] = system: RPMI-8226 leukemia
[27] = system: UO-31 renal
[28] = system: KM12 colon
[29] = system: CAKI-1 renal
[30] = system: HCT-15 colon
[31] = system: HT29 colon
[32] = system: NCI-H522 lung
[33] = system: HS 578T breast
[34] = system: SF-295 CNS
[35] = system: OVCAR-5 ovarian
[36] = system: MOLT-4 leukemia
[37] = system: SW-620 colon
[38] = system: MDA-MB-231 breast
[39] = system: A549 NSCLC
[40] = system: NCI/ADR-RES ovarian
[41] = system: SNB-75 CNS
[42] = system: LOX IMVI melanoma
[43] = system: T-47D breast
[44] = system: OVCAR-8 ovarian
[45] = system: NCI-H460 lung
[46] = system: HOP-92 NSCLC
[47] = system: NCI-H226 lung
[48] = system: HCC-2998 colon
[49] = system: UACC-62 melanoma
[50] = system: HL-60(TB) leukemia
[51] = system: M14 melanoma
[52] = system: PC-3 prostate
[53] = system: OVCAR-3 ovarian
[54] = system: SN12C renal
[55] = system: UACC-257 melanoma
[56] = system: SR leukemia
[57] = system: RXF 393 renal
[58] = system: NCI-H23 lung
[59] = system: SNB-78 CNS
[60] = system: LXFL 529 NSCLC
[61] = system: M19-MEL melanoma
[62] = system: OVCAR-4 ovarian
[63] = system: KM20L2 colon

In the case of COc1ccccc1NC1=NCC(C)S1 (stereo not given), the TGI [1] is reported as > 100 µM, the TGI [2] is reported as > 100 µM and the TGI [3] is reported as > 100 µM. For the same compound, the TGI [4] was > 100 µM, the TGI [5] was > 100 µM and the TGI [6] was > 100 µM. For the same compound, the TGI [7] was > 100 µM, the TGI [8] was > 100 µM and the TGI [9] was > 100 µM. The TGI [10] was > 100 µM, the TGI [11] was > 100 µM and the TGI [12] was > 100 µM. For the same compound, the TGI [13] was > 100 µM, the TGI [14] was > 100 µM and the TGI [15] was > 100 µM. For the same compound, the TGI [16] was > 100 µM, the TGI [17] was > 100 µM and the TGI [18] was > 100 µM. For the same compound, the TGI [19] was > 100 µM, the TGI [20] was > 100 µM and the TGI [21] was > 100 µM. The TGI [22] was > 100 µM, the TGI [23] was > 100 µM and the TGI [24] was > 100 µM. The TGI [25] was > 100 µM, the TGI [26] was > 100 µM and the TGI [27] was > 100 µM. The TGI [28] was > 100 µM, the TGI [29] was > 100 µM and the TGI [30] was > 100 µM. For the same compound, the TGI [31] was > 100 µM, the TGI [32] was > 100 µM and the TGI [33] was > 100 µM. For the same compound, the TGI [34] was > 100 µM, the TGI [35] was > 100 µM and the TGI [36] was > 100 µM. The TGI [37] was > 100 µM, the TGI [38] was > 100 µM and the TGI [39] was > 100 µM. The TGI [40] was > 100 µM, the TGI [41] was > 100 µM and the TGI [42] was > 100 µM. The TGI [43] was > 100 µM, the TGI [44] was > 100 µM and the TGI [45] was > 100 µM. The TGI [46] was > 100 µM, the TGI [47] was > 100 µM and the TGI [48] was > 100 µM. For the same compound, the TGI [49] was > 100 µM, the TGI [50] was > 100 µM and the TGI [51] was > 100 µM. The TGI [52] was > 100 µM, the TGI [53] was > 100 µM and the TGI [54] was > 100 µM. The TGI [55] was > 100 µM, the TGI [56] was > 100 µM and the TGI [57] was > 100 µM. The TGI [58] was > 100 µM.
COC(=O)C(Cc1ccccc1)N=Cc1c(O)c(O)c(C(C)C)c2cc(C)c(-c3c(C)cc4c(C(C)C)c(O)c(O)c(C=NC(Cc5ccccc5)C(=O)OC)c4c3O)c(O)c12 (stereo not given) was tested, and the TGI [1] was > 100 µM, the TGI [3] was > 100 µM and the TGI [59] was 29.2 µM. For the same compound, the TGI [4] was 81 µM, the TGI [60] was 38.5 µM and the TGI [9] was 43.6 µM. For the same compound, the TGI [10] was 44 µM, the TGI [13] was > 100 µM and the TGI [14] was > 100 µM. For the same compound, the TGI [15] was 92.9 µM, the TGI [16] was 55.2 µM and the TGI [17] was > 100 µM. For the same compound, the TGI [18] was 38.5 µM, the TGI [19] was > 100 µM and the TGI [21] was 74.3 µM. For the same compound, the TGI [22] was > 100 µM, the TGI [26] was 92.3 µM and the TGI [27] was 80.7 µM. For the same compound, the TGI [28] was 39.7 µM, the TGI [61] was > 100 µM and the TGI [31] was 32.5 µM. For the same compound, the TGI [32] was 54.7 µM, the TGI [34] was 35.6 µM and the TGI [35] was 49.3 µM. For the same compound, the TGI [36] was 11.6 µM, the TGI [41] was > 100 µM and the TGI [62] was 64.5 µM. It also gave a TGI [45] of 51.4 µM, a TGI [46] of 77 µM and a TGI [63] of 55.3 µM. The TGI [49] was 55.9 µM, the TGI [50] was 59 µM and the TGI [53] was 52.1 µM. For the same compound, the TGI [55] was 63 µM, the TGI [56] was 10.1 µM and the TGI [57] was 35 µM. It also gave a TGI [58] of 74.6 µM.
